From US8815840B2, “Carbazole and carboline kinase inhibitors” (Bristol-Myers Squibb Company, priority 2008, dated 2014)
Counter-ions that a name gives are not always drawn.

The compounds below were run against JAK2 (Homo sapiens (Human), UniProt O60674) (assay: JAK2 Tyrosine Kinase Assay). Details: ATP 30 μM; JAK2 1 nM; 60 min at room temperature.
Type: biochemical
Description: JAK2 Tyrosine Kinase Assay
The assays were performed in V-bottom 384-well plates. […] The reaction was initiated by the combination of JAK2 with substrates and test compounds. The reaction was incubated at room temperature for 60 min. and terminated by adding 45 μl of 35 mM EDTA to each sample. The reaction mixture was analyzed on the Caliper LABCHIP® 3000 by electrophoretic separation of the fluorescent substrate and phosphorylated product. […] Compounds were dissolved at 10 mM in dimethylsulfoxide (DMSO) and evaluated at eleven concentrations, each in duplicate. IC50 values were derived by non-linear regression analysis

Sequence of JAK2 (O60674 whole entry): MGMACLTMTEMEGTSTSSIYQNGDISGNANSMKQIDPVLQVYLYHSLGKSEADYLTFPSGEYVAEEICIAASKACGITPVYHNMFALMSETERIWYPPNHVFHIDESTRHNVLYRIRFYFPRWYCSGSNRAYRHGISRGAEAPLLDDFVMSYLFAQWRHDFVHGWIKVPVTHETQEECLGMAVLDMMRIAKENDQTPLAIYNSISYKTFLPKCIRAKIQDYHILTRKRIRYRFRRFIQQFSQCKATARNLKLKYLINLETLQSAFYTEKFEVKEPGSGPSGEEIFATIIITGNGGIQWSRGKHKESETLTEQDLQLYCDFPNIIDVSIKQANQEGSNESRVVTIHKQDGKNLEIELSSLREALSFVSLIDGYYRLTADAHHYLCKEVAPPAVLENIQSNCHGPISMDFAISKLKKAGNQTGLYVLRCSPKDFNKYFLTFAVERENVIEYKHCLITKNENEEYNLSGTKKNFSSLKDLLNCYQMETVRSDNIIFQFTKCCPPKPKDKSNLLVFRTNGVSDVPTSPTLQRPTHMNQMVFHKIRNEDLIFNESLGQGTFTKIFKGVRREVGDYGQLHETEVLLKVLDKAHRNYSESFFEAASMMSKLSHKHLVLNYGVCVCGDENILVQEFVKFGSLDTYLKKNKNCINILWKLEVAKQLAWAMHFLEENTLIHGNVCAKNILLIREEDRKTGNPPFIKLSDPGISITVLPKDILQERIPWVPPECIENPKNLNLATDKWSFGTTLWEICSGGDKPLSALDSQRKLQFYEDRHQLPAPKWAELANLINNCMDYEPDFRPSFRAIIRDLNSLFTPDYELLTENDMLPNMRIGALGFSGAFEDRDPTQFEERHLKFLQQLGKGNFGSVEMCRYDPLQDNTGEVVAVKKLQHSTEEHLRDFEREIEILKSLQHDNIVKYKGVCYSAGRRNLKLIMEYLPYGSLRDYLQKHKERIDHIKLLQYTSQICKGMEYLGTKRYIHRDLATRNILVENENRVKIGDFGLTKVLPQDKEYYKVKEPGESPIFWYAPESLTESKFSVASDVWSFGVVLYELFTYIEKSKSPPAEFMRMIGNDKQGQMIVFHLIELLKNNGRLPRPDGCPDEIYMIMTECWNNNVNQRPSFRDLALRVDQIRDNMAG

Structure (SMILES) | IC50
NC(=O)c1cc(-c2cccc(Cl)c2)cc2c1[nH]c1ccc(C(=O)N3CCOCC3)cc12 [Example 15, 3-(3-chlorophenyl)-6-(morpholine-4-carbonyl)-9H-carbazole-1-carboxamide] | 1 nM
NC(=O)c1cc(-c2ccc(Cl)c(Cl)c2)cc2c1[nH]c1ccc(C(=O)N[C@@H]3CCNC3)cc12 [Example 49, 3-(3,4-dichlorophenyl)-N^6-((3R)-3-pyrrolidinyl)-9H-carbazole-1,6-dicarboxamide] | 6 nM
NC(=O)c1cc(-c2ccc(Cl)c(Cl)c2)cc2c1[nH]c1ccc(C(=O)NCCN3CCOCC3)cc12 [Example 51, 3-(3,4-dichlorophenyl)-N^6-(2-(4-morpholinyl)ethyl)-9H-carbazole-1,6-dicarboxamide] | 6 nM
CN(C)CCNC(=O)c1ccc2[nH]c3c(C(N)=O)cc(-c4ccc(Cl)c(Cl)c4)cc3c2c1 [Example 56, 3-(3,4-dichlorophenyl)-N^6-(2-(dimethylamino)ethyl)-9H-carbazole-1,6-dicarboxamide] | 6 nM
CN1CCN(C(=O)c2ccc3c(c2)[nH]c2c(C(N)=O)cc(-c4ccc(Cl)c(Cl)c4)cc23)CC1 [Example 61, 3-(3,4-dichlorophenyl)-7-((4-methyl-1-piperazinyl)carbonyl)-9H-carbazole-1-carboxamide] | 6 nM
COc1cc(-c2cc(C(N)=O)c3[nH]c4cc(C(=O)N5CCN(C)CC5)ccc4c3c2)ccc1NC(=O)OC(C)(C)C [Example 73, tert-butyl (4-(1-carbamoyl-7-((4-methyl-1-piperazinyl)carbonyl)-9H-carbazol-3-yl)-2-methoxyphenyl)carbamate] | 160 nM
CN1CCN(C(=O)c2ccc3c(c2)[nH]c2c(C(N)=O)cc(-c4ccc(Cl)nc4)cc23)CC1 [Example 76, 3-(6-chloro-3-pyridinyl)-7-((4-methyl-1-piperazinyl)carbonyl)-9H-carbazole-1-carboxamide] | 7 nM
COc1ccc(-c2cc(C(N)=O)c3[nH]c4cc(C(=O)N5CCN(C)CC5)ccc4c3c2)cc1F [Example 79, 3-(3-fluoro-4-methoxyphenyl)-7-((4-methyl-1-piperazinyl)carbonyl)-9H-carbazole-1-carboxamide] | 6 nM
CN1CCN(C(=O)c2ccc3c(c2)[nH]c2c(C(N)=O)cc(-c4ccccc4)cc23)CC1 [Example 80, 7-((4-methyl-1-piperazinyl)carbonyl)-3-phenyl-9H-carbazole-1-carboxamide] | 6 nM
COc1cccc(-c2cc(C(N)=O)c3[nH]c4cc(C(=O)N5CCN(Cc6cccnc6)CC5)ccc4c3c2)c1 [Example 88, 3-(3-methoxyphenyl)-7-((4-(3-pyridinylmethyl)-1-piperazinyl)carbonyl)-9H-carbazole-1-carboxamide] | 6 nM
COc1cccc(-c2cc(C(N)=O)c3[nH]c4cc(C(=O)N(C)CCS(C)(=O)=O)ccc4c3c2)c1 [Example 96, 3-(3-methoxyphenyl)-N^7-methyl-N^7-(2-(methylsulfonyl)ethyl)-9H-carbazole-1,7-dicarboxamide] | < 1 nM
COCCCN1CCN(C(=O)c2ccc3c(c2)[nH]c2c(C(N)=O)cc(-c4cccc(OC)c4)cc23)CC1 [Example 106, 3-(3-methoxyphenyl)-7-((4-(3-methoxypropyl)-1-piperazinyl)carbonyl)-9H-carbazole-1-carboxamide] | < 1 nM
COc1cccc(-c2cc(C(N)=O)c3[nH]c4cc(C(=O)N5C[C@@H]6C[C@H]5CO6)ccc4c3c2)c1 [Example 124, 3-(3-methoxyphenyl)-7-((1S,4S)-2-oxa-5-azabicyclo[2.2.1]hept-5-ylcarbonyl)-9H-carbazole-1-carboxamide] | 6 nM
CNC(=O)c1cc(-c2ccc(OC)cc2)nc2c1[nH]c1cc(OC)ccc12 [Example 128, 7-Methoxy-2-(4-methoxyphenyl)-N-methyl-5H-pyrido[3,2-b]indole-4-carboxamide] | 1230 nM
COc1ccc(-c2cc(C(N)=O)c3[nH]c4nc(OC)ccc4c3n2)cc1 [Example 129, 7-Methoxy-2-(4-methoxyphenyl)-5H-pyrido[2′,3′:4,5]pyrrolo[2,3-b]pyridine-4-carboxamide] | 110 nM
COc1cccc(-c2cc(C(N)=O)c3[nH]c4cc(NC(=O)OCCN)ccc4c3c2)c1 [Example 132, 2-aminoethyl (8-carbamoyl-6-(3-methoxyphenyl)-9H-carbazol-2-yl)carbamate] | 7 nM
CC(C)Oc1ccc2[nH]c3c(C(N)=O)cc(-c4ccc(Cl)c(Cl)c4)cc3c2c1 [Example 140, 3-(3,4-Dichlorophenyl)-6-isopropoxy-9H-carbazole-1-carboxamide] | 150 nM
COC(=O)c1ccc2c(c1)[nH]c1c(C(N)=O)cc(-c3cccc(OC)c3)cc12 [Example 142, Methyl 8-carbamoyl-6-(3-methoxyphenyl)-9H-carbazole-2-carboxylate] | 310 nM
COC(=O)c1cccc2[nH]c3c(C(N)=O)cc(-c4cccc(OC)c4)cc3c12 [Example 143, Methyl 8-carbamoyl-6-(3-methoxyphenyl)-9H-carbazole-4-carboxylate] | 110 nM

Structure (SMILES) | IC50
NC(=O)c1cc(-c2ccc(OC(F)(F)F)cc2)cc2c1[nH]c1cc(C(=O)N3CCOCC3)ccc12 [Example 151, 7-(4-morpholinylcarbonyl)-3-(4-(trifluoromethoxy)phenyl)-9H-carbazole-1-carboxamide] | 6 nM
COc1ccc(-c2cc(C(N)=O)c3[nH]c4ccc(C(=O)N5CCOCC5)cc4c3c2)cc1OC [Example 166, 3-(3,4-dimethoxyphenyl)-6-(4-morpholinylcarbonyl)-9H-carbazole-1-carboxamide] | 6 nM
NC(=O)c1cc(-c2ccc(Cl)c(Cl)c2)cc2c1[nH]c1ccc(C(=O)N3CCOC(CO)C3)cc12 (stereo not shown) [Example 180, 3-(3,4-dichlorophenyl)-6-(2-(hydroxymethyl)morpholine-4-carbonyl)-9H-carbazole-1-carboxamide] | 2 nM
COc1cc(-c2cc(C(N)=O)c3[nH]c4ccc(C(=O)N5CCOC(CO)C5)cc4c3c2)cc(OC)c1OC (stereo not shown) [Example 183, 6-(2-(hydroxymethyl)morpholine-4-carbonyl)-3-(3,4,5-trimethoxyphenyl)-9H-carbazole-1-carboxamide] | 160 nM
NC(=O)c1cc(-c2cccc(Cl)c2)cc2c1[nH]c1ccc(C(=O)N3CCOC(CO)C3)cc12 (stereo not shown) [Example 185, 3-(3-chlorophenyl)-6-(2-(hydroxymethyl)morpholine-4-carbonyl)-9H-carbazole-1-carboxamide] | 1 nM
COc1ccc(-c2cc(C(N)=O)c3[nH]c4ccc(C(=O)N5CCC[C@H](O)C5)cc4c3c2)cc1F [Example 190, (S)-3-(3-fluoro-4-methoxyphenyl)-6-(3-hydroxypiperidine-1-carbonyl)-9H-carbazole-1-carboxamide] | 2 nM
COc1ccc(-c2cc(C(N)=O)c3[nH]c4ccc(C(=O)N5C[C@@H]6C[C@H]5CO6)cc4c3c2)cc1F [Example 196, 6-((1S,4S)-2-oxa-5-azabicyclo[2.2.1]heptane-5-carbonyl)-3-(3-fluoro-4-methoxyphenyl)-9H-carbazole-1-carboxamide] | 1 nM
COc1ccc(-c2cc(C(N)=O)c3[nH]c4ccc(C(=O)N5CCC(O)CC5)cc4c3c2)cc1F [Example 197, 3-(3-fluoro-4-methoxyphenyl)-6-(4-hydroxypiperidine-1-carbonyl)-9H-carbazole-1-carboxamide] | 1 nM
COc1cccc(-c2cc(C(N)=O)c3[nH]c4ccncc4c3c2)c1 [Example 203, 8-(3-Methoxyphenyl)-5H-pyrido[4,3-b]indole-6-carboxamide, HCl] | 34 nM
COc1cccc(-c2cc(C(N)=O)c3[nH]c4cccnc4c3c2)c1 [Example 204, 8-(3-Methoxyphenyl)-5H-pyrido[3,2-b]indole-6-carboxamide, HCl] | 29 nM
COc1ccc(-c2nc(C(N)=O)c3[nH]c4cc(OC)ccc4c3n2)cc1 [Example 210, 7-Methoxy-2-(4-methoxyphenyl)-5H-pyrimido[5,4-b]indole-4-carboxamide] | 170 nM
COc1ccc(-c2cc(C(N)=O)c3[nH]c4cc(C(=O)N5CC[C@H](N(C)C)C5)ccc4c3n2)cc1F [Example 211, (S)-7-(3-(Dimethylamino)pyrrolidine-1-carbonyl)-2-(3-fluoro-4-methoxyphenyl)-5H-pyrido[3,2-b]indole-4-carboxamide] | < 1 nM
NC(=O)c1cc(-c2ccc(F)c(F)c2)nc2c1[nH]c1cc(C(=O)N3CCOCC3)ccc12 [Example 216, 2-(3,4-difluorophenyl)-7-(4-morpholinylcarbonyl)-5H-pyrido[3,2-b]indole-4-carboxamide] | 7 nM
NC(=O)c1cc(-c2ccc(Cl)cc2)nc2c1[nH]c1cc(C(=O)N3CCOCC3)ccc12 [Example 227, 2-(4-chlorophenyl)-7-(4-morpholinylcarbonyl)-5H-pyrido[3,2-b]indole-4-carboxamide] | 2 nM
NC(=O)c1cc(-c2ccc(Cl)c(Cl)c2)nc2c1[nH]c1cc(OCCN3CCOCC3)ccc12 [Example 245] | 7 nM
CC(C)(C)N1CCN(Cc2ccc3c(c2)[nH]c2c(C(N)=O)cc(-c4cccc(Cl)c4)nc23)CC1 [Example 256, 7((4-tert-Butyl-1-piperazinyl)methyl)-2-(3-chlorophenyl)-5H-pyrido[3,2-b]indole-4-carboxamide] | 1 nM
NC(=O)c1cc(-c2cccc(Cl)c2)nc2c1[nH]c1ccc(CN3CCOCC3)cc12 [Example 257, 2-(3-Chlorophenyl)-8-(morpholinomethyl)-5H-pyrido[3,2-b]indole-4-carboxamide] | 1 nM
CN1CCN(c2ccc3c(c2)[nH]c2c(C(N)=O)cc(-c4cccc(Cl)c4)nc23)CC1 [Example 309, 2-(3-chlorophenyl)-7-(4-methylpiperazin-1-yl)-5H-pyrido[3,2-b]indole-4-carboxamide] | 1 nM
